Test results reported in ChEMBL document CHEMBL4130553, “Cornusides A-O, Bioactive Iridoid Glucoside Dimers from the Fruit of Cornus officinalis” (J Nat Prod, 2017).

System: HepG2
Experiment: Cytotoxicity in human HepG2 cells assessed as reduction in cell viability incubated for 48 hrs by MTT assay
Format: cell-based
Details: hepg2, 48 h

Row | SMILES | Activity
1 | COC(=O)C1=CO[C@@H](O[C@@H]2O[C@H](CO)[C@@H](O)[C@H](O)[C@H]2O)[C@@H]2[C@H](C)[C@@H](O)C[C@H]12 | Non-Toxic
2 | COC(=O)C1=CO[C@@H](O[C@@H]2O[C@H](CO)[C@@H](O)[C@H](O)[C@H]2O)[C@@H]2[C@H](C)O[C@@H](OC)C[C@H]12 | Non-Toxic
3 | COC(=O)C1=CO[C@@H](O[C@@H]2O[C@H](CO)[C@@H](O)[C@H](O)[C@H]2O)[C@@H]2[C@H](C)O[C@H](OC)C[C@H]12 | Non-Toxic
4 | COC(=O)C1=CO[C@@H](O[C@@H]2O[C@H](CO)[C@@H](O)[C@H](O)[C@H]2O)[C@@H]2[C@H](C)O[C@H](O)C[C@H]12 | Non-Toxic
5 | COC(=O)C1=CO[C@@H](O[C@@H]2O[C@H](CO[C@@H]3C[C@@H]4C(C(=O)OC)=CO[C@@H](O[C@@H]5O[C@H](CO)[C@@H](O)[C@H](O)[C@H]5O)[C@@H]4[C@H](C)O3)[C@@H](O)[C@H](O)[C@H]2O)[C@@H]2[C@@H](C)[C@@H](O)C[C@H]12 | Non-Toxic
6 | CCO[C@@H]1C[C@@H]2C(C(=O)OC)=CO[C@@H](O[C@@H]3O[C@H](CO)[C@@H](O)[C@H](O)[C@H]3O)[C@@H]2[C@H](C)O1 | Non-Toxic
7 | COC(=O)C1=CO[C@@H](O[C@@H]2O[C@H](C)[C@@H](O)[C@H](O)[C@H]2O)[C@@H]2[C@H](C)O[C@@H](O[C@@H]3[C@@H](O)[C@H](O[C@@H]4OC=C(C(=O)OC)[C@H]5C[C@@H](OC)O[C@@H](C)[C@@H]45)O[C@H](CO)[C@H]3O)C[C@H]12 | Non-Toxic
8 | COC(=O)C1=CO[C@@H](O[C@@H]2O[C@H](CO)[C@@H](O)[C@H](O)[C@H]2O[C@@H]2C[C@@H]3C(C(=O)OC)=CO[C@@H](O[C@@H]4O[C@H](CO)[C@@H](O)[C@H](O)[C@H]4O)[C@@H]3[C@H](C)O2)[C@@H]2[C@@H](C)[C@@H](O)C[C@H]12 | Non-Toxic
9 | COC(=O)C1=CO[C@@H](O[C@@H]2O[C@H](C)[C@@H](O)[C@H](O)[C@H]2O)[C@@H]2[C@H](C)O[C@@H](O[C@H]3[C@H](O)[C@@H](O)[C@H](O[C@@H]4OC=C(C(=O)OC)[C@H]5C[C@H](OC)O[C@@H](C)[C@@H]45)O[C@@H]3CO)C[C@H]12 | Non-Toxic
10 | COC(=O)C1=CO[C@@H](O[C@@H]2O[C@H](CO)[C@@H](O)[C@H](O)[C@H]2O)[C@@H]2[C@H](C)O[C@H](O[C@H]3[C@H](O[C@@H]4OC=C(C(=O)OC)[C@H]5C[C@H](OC)O[C@@H](C)[C@@H]45)O[C@H](CO)[C@@H](O)[C@@H]3O)C[C@H]12 | Non-Toxic
11 | COC(=O)C1=CO[C@@H](O[C@@H]2O[C@H](CO)[C@@H](O)[C@H](O)[C@H]2O)[C@@H]2[C@@H](C)[C@@H](O[C@H]3C[C@@H]4C(C(=O)OC)=CO[C@@H](O[C@@H]5O[C@H](CO)[C@@H](O)[C@H](O)[C@H]5O)[C@@H]4[C@@H](C)O3)C[C@H]12 | Non-Toxic
12 | CCO[C@H]1C[C@@H]2C(C(=O)OC)=CO[C@@H](O[C@@H]3O[C@H](CO)[C@@H](O)[C@H](O)[C@H]3O)[C@@H]2[C@H](C)O1 | Non-Toxic
13 | COC(=O)C1=CO[C@@H](O[C@@H]2O[C@H](CO[C@@H]3C[C@@H]4C(C(=O)OC)=CO[C@@H](O[C@@H]5O[C@H](CO)[C@@H](O)[C@H](O)[C@H]5O)[C@@H]4[C@H](C)O3)[C@@H](O)[C@H](O)[C@H]2O)[C@@H]2[C@H](C)O[C@H](OC)C[C@H]12 | Non-Toxic
14 | COC(=O)C1=CO[C@@H](O[C@@H]2O[C@H](CO)[C@@H](O)[C@H](O)[C@H]2O)[C@@H]2[C@H](C)O[C@@H](O[C@H]3[C@H](O[C@@H]4OC=C(C(=O)OC)[C@H]5C[C@H](OC)O[C@@H](C)[C@@H]45)O[C@H](CO)[C@@H](O)[C@@H]3O)C[C@H]12 | Non-Toxic
15 | CCO[C@@H]1C[C@@H]2C(C(=O)OC)=CO[C@@H](O[C@@H]3O[C@H](CO[C@H]4C[C@@H]5C(C(=O)OC)=CO[C@@H](O[C@@H]6O[C@H](CO)[C@@H](O)[C@H](O)[C@H]6O)[C@@H]5[C@H](C)O4)[C@@H](O)[C@H](O)[C@H]3O)[C@@H]2[C@H](C)O1 | Non-Toxic
16 | COC(=O)C1=CO[C@@H](O[C@@H]2O[C@H](CO)[C@@H](O)[C@H](O)[C@H]2O)[C@@H]2[C@H](C)O[C@@H](OC[C@H]3O[C@@H](O[C@@H]4OC=C(C(=O)OC)[C@H]5C[C@@H](OC)O[C@@H](C)[C@@H]45)[C@H](O)[C@@H](O)[C@@H]3O)C[C@H]12 | Non-Toxic
17 | COC(=O)C1=CO[C@@H](O[C@@H]2O[C@H](CO[C@@H]3C[C@@H]4C(C(=O)OC)=CO[C@@H](O[C@@H]5O[C@H](CO)[C@@H](O)[C@H](O)[C@H]5O)[C@@H]4[C@H](C)O3)[C@@H](O)[C@H](O)[C@H]2O)[C@@H]2[C@H](C)O[C@@H](OC)C[C@H]12 | Non-Toxic
18 | COC(=O)C1=CO[C@@H](O[C@@H]2O[C@H](CO)[C@@H](O[C@H]3C[C@@H]4C(C(=O)OC)=CO[C@@H](O[C@@H]5O[C@H](C)[C@@H](O)[C@H](O)[C@H]5O)[C@@H]4[C@H](C)O3)[C@H](O)[C@H]2O)[C@@H]2[C@@H](C)[C@@H](O)C[C@H]12 | Non-Toxic
19 | COC(=O)C1=CO[C@@H](O[C@@H]2O[C@H](C)[C@@H](O)[C@H](O)[C@H]2O)[C@@H]2[C@H](C)O[C@@H](O[C@@H]3[C@@H](O)[C@H](O[C@@H]4OC=C(C(=O)OC)[C@H]5C[C@H](OC)O[C@@H](C)[C@@H]45)O[C@H](CO)[C@H]3O)C[C@H]12 | Non-Toxic
20 | COC(=O)C1=CO[C@@H](O[C@@H]2O[C@H](CO)[C@@H](O)[C@H](O)[C@H]2O)[C@@H]2[C@H](C)O[C@H](O[C@H]3[C@H](O[C@@H]4OC=C(C(=O)OC)[C@H]5C[C@@H](OC)O[C@@H](C)[C@@H]45)O[C@H](CO)[C@@H](O)[C@@H]3O)C[C@H]12 | Non-Toxic
21 | COC(=O)C1=CO[C@@H](O[C@@H]2O[C@H](CO[C@H]3C[C@@H]4C(C(=O)OC)=CO[C@@H](O[C@@H]5O[C@H](CO)[C@@H](O)[C@H](O)[C@H]5O)[C@@H]4[C@H](C)O3)[C@@H](O)[C@H](O)[C@H]2O)[C@@H]2[C@H](C)O[C@@H](OC)C[C@H]12 | Non-Toxic
22 | CCO[C@H]1C[C@@H]2C(C(=O)OC)=CO[C@@H](O[C@@H]3O[C@H](CO[C@H]4C[C@@H]5C(C(=O)OC)=CO[C@@H](O[C@@H]6O[C@H](CO)[C@@H](O)[C@H](O)[C@H]6O)[C@@H]5[C@H](C)O4)[C@@H](O)[C@H](O)[C@H]3O)[C@@H]2[C@H](C)O1 | Non-Toxic
23 | COC(=O)C1=CO[C@@H](O[C@@H]2O[C@H](CO)[C@@H](O)[C@H](O)[C@H]2O)[C@@H]2[C@@H](C)[C@@H](O)C[C@H]12 [LOGANIN] | Non-Toxic
24 | COC(=O)C1=CO[C@@H](O[C@@H]2O[C@H](CO)[C@@H](O)[C@H](O)[C@H]2O)[C@@H]2[C@H](C)O[C@@H](O)C[C@H]12 [MORRONISIDE] | Non-Toxic
25 | C=C[C@H]1[C@H](O[C@@H]2O[C@H](CO)[C@@H](O)[C@H](O)[C@H]2O)OC=C2C(=O)OCC[C@H]21 [SWEROSIDE] | Non-Toxic
